The values that follow come from patent publication US9321760B2 (Merck Patent GmbH, priority 2011, dated 2016).

The target of the assay is P70S6K (T412E mutant) (Homo sapiens (Human), UniProt P23443, T412E). The assay is described as follows: P70S6K enzyme assay. The format is biochemical. To be noted: 3 nM P70S6K T412E mutant, 24 μM ATP, 1 μM FITC-AHA-AKRRRLSSLRA-OH substrate peptide, 90 min at 25° C. The essentials: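 IC50s come from mobility-shift separation of phospho-product from FITC-AHA-AKRRRLSSLRA-OH substrate (1 μM) after the reaction was quenched with 10 mM EDTA. The reaction used 3 nM T412E-mutant enzyme and 24 μM ATP, running 90 min at 25° C in 100 mM Hepes pH 7.5 buffer.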
Sequence of P70S6K (T412E mutant) (P23443 whole entry T412E): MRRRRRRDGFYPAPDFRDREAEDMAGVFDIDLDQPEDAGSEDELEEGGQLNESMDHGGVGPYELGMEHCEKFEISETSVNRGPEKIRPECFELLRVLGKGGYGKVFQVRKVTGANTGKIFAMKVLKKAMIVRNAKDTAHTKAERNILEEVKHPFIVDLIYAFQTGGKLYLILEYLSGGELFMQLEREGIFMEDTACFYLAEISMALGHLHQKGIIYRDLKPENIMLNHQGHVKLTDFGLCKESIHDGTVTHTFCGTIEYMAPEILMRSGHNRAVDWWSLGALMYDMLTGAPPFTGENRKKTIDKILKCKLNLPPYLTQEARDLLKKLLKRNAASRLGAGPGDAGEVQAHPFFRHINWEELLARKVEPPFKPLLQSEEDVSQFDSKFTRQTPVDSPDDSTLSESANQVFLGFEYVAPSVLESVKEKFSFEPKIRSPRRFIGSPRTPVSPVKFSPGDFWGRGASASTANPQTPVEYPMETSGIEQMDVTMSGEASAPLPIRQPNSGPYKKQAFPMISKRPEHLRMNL

As to `NC(=O)c1c(N)ncnc1N1CCC(N)(C(=O)N[C@@H](CCO)c2ccc(C(F)(F)F)cc2)CC1` [Example 233, 4-Amino-6-{4-amino-4-[(S)-3-hydroxy-1-(4-trifluoromethyl-phenyl)-propylcarbamoyl]-piperidin-1-yl}-pyrimidine-5-carboxylic acid amide], the IC50 stood at 41000 nM.

Consider `COC[C@H](NC(=O)C1(N)CCN(c2ncnc(N)c2Cl)CC1)c1ccc(Cl)cc1` [Example 234, 4-Amino-1-(6-amino-5-chloro-pyrimidin-4-yl)-piperidine-4-carboxylic acid [(R)-1-(4-chloro-phenyl)-2-methoxy-ethyl]-amide], for which half-maximal inhibition (IC50) was put at 560 nM. This IC50 lies about 73-fold lower than the previous one.

On to `Nc1ncnc(N2CCC(N)(C(=O)N[C@@H](CCO)c3ccc(Cl)cc3)CC2)c1Cl` [Example 235, 4-Amino-1-(6-amino-5-chloro-pyrimidin-4-yl)-piperidine-4-carboxylic acid [(S)-1-(4-chloro-phenyl)-3-hydroxy-propyl]-amide], for which the IC50 came out at 250 nM.

`Nc1ncnc(N2CCC(N)(C(=O)N[C@@H](CCO)c3ccc(F)cc3)CC2)c1Cl` [Example 236, 4-Amino-1-(6-amino-5-chloro-pyrimidin-4-yl)-piperidine-4-carboxylic acid [(S)-1-(4-fluoro-phenyl)-3-hydroxy-propyl]-amide]: 900 nM corresponded to half-maximal inhibition (IC50).

As for `Cc1ccc([C@H](CCO)NC(=O)C2(N)CCN(c3ncnc(N)c3Cl)CC2)cc1` [Example 237, 4-Amino-1-(6-amino-5-chloro-pyrimidin-4-yl)-piperidine-4-carboxylic acid ((S)-3-hydroxy-1-p-tolyl-propyl)-amide], the IC50 is 860 nM.

In turn, `COc1ccc([C@H](CCO)NC(=O)C2(N)CCN(c3ncnc(N)c3Cl)CC2)cc1` [Example 238, 4-Amino-1-(6-amino-5-chloro-pyrimidin-4-yl)-piperidine-4-carboxylic acid [(S)-3-hydroxy-1-(4-methoxy-phenyl)-propyl]-amide] came in with an IC50 of 380 nM.

Regarding `Nc1ncnc(N2CCC(N)(C(=O)N[C@@H](CCO)c3ccncc3)CC2)c1Cl` [Example 239, 4-Amino-1-(6-amino-5-chloro-pyrimidin-4-yl)-piperidine-4-carboxylic acid ((S)-3-hydroxy-1-pyridin-4-yl-propyl)-amide], the IC50 is 7200 nM.

Molecule `COC[C@H](NC(=O)C1(N)CCN(c2ncnc(N)c2-c2cn[nH]c2)CC1)c1ccc(Cl)cc1` [Example 240, 4-Amino-1-[6-amino-5-(1H-pyrazol-4-yl)-pyrimidin-4-yl]-piperidine-4-carboxylic acid [(R)-1-(4-chloro-phenyl)-2-methoxy-ethyl]-amide] displayed an IC50 of 100 nM.

Molecule `COC[C@H](NC(=O)C1(N)CCN(c2ncnc(N)c2C#N)CC1)c1ccc(Cl)cc1` [Example 241, 4-Amino-1-(6-amino-5-cyano-pyrimidin-4-yl)-piperidine-4-carboxylic acid [(R)-1-(4-chloro-phenyl)-2-methoxy-ethyl]-amide] displayed an IC50 of 210 nM.

On to `N#Cc1c(N)ncnc1N1CCC(N)(C(=O)N[C@@H](CCO)c2ccc(Cl)cc2)CC1` [Example 242, 4-Amino-1-(6-amino-5-cyano-pyrimidin-4-yl)-piperidine-4-carboxylic acid [(S)-1-(4-chloro-phenyl)-3-hydroxy-propyl]-amide], for which it took 98 nM to reach half-maximal inhibition (IC50).

As to `N#Cc1c(N)ncnc1N1CCC(N)(C(=O)N[C@@H](CCO)c2ccc(F)cc2)CC1` [Example 243, 4-Amino-1-(6-amino-5-cyano-pyrimidin-4-yl)-piperidine-4-carboxylic acid [(S)-1-(4-fluoro-phenyl)-3-hydroxy-propyl]-amide], the IC50 amounted to 390 nM.

In the case of `C[C@H](NC(=O)C1(N)CCN(c2ncnc(N)c2C(N)=O)CC1)c1ccc(Cl)cc1` [Example 244, 4-Amino-6-{4-amino-4-[(S)-1-(4-chloro-phenyl)-ethylcarbamoyl]-piperidin-1-yl}-pyrimidine-5-carboxylic acid amide], the IC50 is 20000 nM.

A word on the IC50: it is the concentration that inhibits the measured activity by half.
